Data: patent US8008354B2, “Death receptor sensitizing compounds and methods of use therefor” (Burnham Institute for Medical Research, priority 2006, dated 2011)
Where a name gives a salt, the structure may show the parent alone.

Legend:
FLIP mRNA = FLIP mRNA by quantitative RT-PCR; format: cell-based, human; conditions: for expression of FLIP mRNA: Example 1, responding and non-responding cell lines, 24 hours, long isoform normalized for GAPDH
Procedure: FIG. 7. Effect of FAS-sensitizing compounds on levels of FLIP protein and DISC activation. (A) PPC-1 cells (2×10^5) were seeded into 35 mm plates and treated the next day with various FAS-sensitizing compounds (30 μM), with (+) or without (−) CH-11 antibody (100 ng/mL). As a positive control, cells were treated with CDDO (5 μM). Cell lysates were prepared 24 hours later, normalized for total protein content, and analyzed by SDS-PAGE/immunoblotting using antibodies specific for FLIP or a-tubulin. (B) PPC-1, OVCAR-3, T47D, MDA-MB-468 and DU 145 cells (2×10^5) were seeded into 35 mm plates and treated the next day with 5809354 (40 μM). Cell lysates were prepared 24 hours after treatment, normalized for total protein and analyzed by SDS-PAGE/immunoblotting using antibodies specific for FLIP or β-actin. (C) PPC-1, OVCAR-3, T47D, and DU 145 cells (2×10^5) were seeded into 35 mm plates and treated the next day with 5809354 (40 μM) (black bars) or buffer control (white bars). mRNA was extracted 24 hours after treatment. Levels of the long isoform of FLIP and GAPDH were detected by quantitative RT-PCR. Levels of FLIP were normalized for GAPDH expression and expressed as a mean fold change+SD over buffer treated cells. (D) PPC-1 cells (2×10^5) were seeded into 35 mm plates and treated the next day with various FAS-sensitizing compounds (30 μM) with (+) or without (−) CH-11 (100 ng/mL). Cell lysates were prepared 24 hours after treatment, normalized for total protein, and analyzed by SDS-PAGE/immunoblotting using antibodies specific for caspase-8 and β-actin.
FIG. 13. Small molecule down-regulation of FLIP sensitizes prostate cancer cells to anoikis. (A) PPC-1 cells were seeded overnight in adherent conditions and then treated with increasing concentrations of 5809354 for 16 hours. After incubation, cells were harvested. Total cellular RNA was extracted and mRNA levels of the long isoform of FLIP (FLIPL), the short isoform of FLIP (FLIPS), or rRNA levels of 18S were detected by real-time RT-PCR. Data were normalized using the ΔΔCT method and expressed as the mean±SEM percent of […] expression relative to untreated controls. (B) PPC-1 cells were cultured and treated as in panel A. Total cellular protein was isolated and analyzed by SDS-PAGE immunoblotting using anti-FLIP and anti-Actin antibodies. […] Thirty hours after incubation, cell viability was determined using the MTS assay. […] After incubation, apoptosis was measured by flow cytometry to detect cell surface annexin V expression and PI. […] (E) Cells were harvested, fixed, stained with DAPI, and nuclear morphology analyzed by fluorescence microscopy. […] One week later, cells were stained with methylene blue and the number of colonies counted. […]
Quantitative RT-PCR. […]

solid tumor cell lines = assay: MTT cell viability of a spectrum of tumor cell lines with or without CH-11; format: cell-based; conditions: 10 tumor cell lines, CH-11 100 ng/mL, MTT 24 hours
Procedure: FIG. 3. Compounds 6094911, 5809354, and 5569100 sensitize a spectrum of tumor cells to CH-11 anti-FAS antibody. Solid tumor cell lines were seeded overnight in 96 well plates at a density of 1×10^4 cells per well. The next day, cells were treated with increasing concentrations of compound 6094911, 5809354, or 5569100 with (square) or without (circle) CH-11 antibody (100 ng/mL). Cell viability was measured 24 hours later by MTT assay. Cell viability is expressed as a mean percentage of untreated cells+SD (n=3).
Cell death assays. Cell viability was measured by MTT and MTS assays, essentially as described in Schimmer et al. (2004). Absorbance readings were plotted against a standard curve to derive the corresponding cell number, and cell viability was expressed as a percentage relative to untreated cells. Apoptosis was measured by flow cytometric analysis of Annexin V surface expression after staining cells with FITC-anti-Annexin V and propidium iodide (PI) (Biovision, Mountain View, Calif.), as described in Pederson et al. (2002).
To assess the spectrum of activity of the small molecule FAS sensitizers, an additional 9 malignant cell lines derived from breast, ovarian, and prostate carcinomas were treated with increasing concentrations of the sensitizers in the presence or absence of CH-11. […]

| Compound | expression of FLIP mRNA (FLIP mRNA) | tumor cell lines sensitized to CH-11 (solid tumor cell lines) | FLIP mRNA expression (FLIP mRNA; Example 2, PPC-1 cells, increasing concentrations, 16 hours) |
| --- | --- | --- | --- |
| CCn1c(=N)n(CC(=O)c2cc(C(C)(C)C)c(O)c(C(C)(C)C)c2)c2ccccc21 [compound 5569100, 1-(3,5-di-tert-butyl-4-hydroxyphenyl)-2-(3-ethyl-2-imino-2,3-dihydro-1H-benzo[d]imidazol-1-yl)ethanone hydrobromide] | did not reduce FLIP mRNA |  |  |
| CC(=O)CC(=O)Nc1ccc(Cl)c(C(F)(F)F)c1 [compound 6094911, N-[4-chloro-3-(trifluoromethyl)phenyl]-3-oxobutanamide] | did not reduce FLIP mRNA | 4 of 10 |  |
| 4-(4-chloro-2-methylphenoxy)-N-hydroxybutanamide [compound 5809354] | reduced expression of FLIP mRNA | sensitized the same tumor lines with the exception of HT29 | concentration-dependent decrease |
